Assay [1] concerns immature monocyte-derived dendritic cells (MoDC). In words: MoDC pCREB assay. The class given is cell-based, human. The conditions noted are these: pCREB in immature MoDC, 1 μM NECA, rolipram. As for the experimental part:
Monocytes are isolated from human whole blood using CD14 microbeads (Miltenyi Biotec 130-050-201) and differentiated to immature monocyte-derived dendritic cells (MoDC) by culture for 5 days in Mo-DC Differentiation Medium (Miltenyi Biotec 130-094-812). MoDCs are seeded into fresh medium into U bottomed 96 well culture plates and pre-incubated at 37° C. with serial dilutions of A2A/B antagonists for 15 min. At the same time the cells are co-incubated with the phosphodiesterase inhibitor rolipram (final concentration of 20 µM) to amplify the subsequent pCREB response. Adenosine receptor agonist NECA is then added at 1 μM final concentration, leading to an increase in CREB phosphorylation. Following a 45 min incubation at 37° C., the cells are fixed, permeabilized and stained with directly conjugated fluorescent antibodies to phospho-CREB (Alexa Fluor 488), CD209 (PerCP-Cy5.5) and CD86 (APC). Samples are analysed by FACS to measure fluorescence in corresponding channels, and also forward and Side scatter. The population of CD209+/CD86− low cells corresponding to immature dendritic cells is gated for analysis of pCREB levels.
Approximately 5% of the analysed cells are positive for detection of pCREB in the absence of agonist stimulation, representing the background signalling of all pathways upstream of CREB. Following NECA stimulation this is increased to ˜80% pCREB+ve, and this increase is essentially fully reversible by A2B or dual A2A/B antagonists.
IC50 is represented as the point of inflection of a sigmoidal curve

For assay [2], the target named is human Adenosine A1 receptor (Homo sapiens (Human), UniProt P30542). In words: Adenosine receptor TR-FRET binding assay (A1). The conditions noted are these: inhibition of binding of 100 nM CA200645, CHO cell membranes. In short, it runs like this:
(§1)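 Terbium-labelled human receptors in CHO cell membranes were incubated 2 h at room temperature with test compounds and fluorescent XAC tracer CA200645 (30 nM for A2b; 100 nM for A1, A2a, A3). TR-FRET 665/620 nm ratio gave specific binding; Ki derived from IC50 by Cheng–Prusoff.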
(In TR-FRET formats the signal depends on donor and acceptor labels being close together.)

The target in assay [3] is human Adenosine A2a receptor (Homo sapiens (Human), UniProt P29274). In words: Adenosine receptor TR-FRET binding assay (A2a). The conditions noted are these: inhibition of binding of 100 nM CA200645, CHO cell membranes. Summed up: as §1
In assay [4] the test system is CD8+T cells in human whole blood. Put plainly: Measurement of pCREB in CD8+T cells in human whole blood. The conditions noted are these: 3 μM NECA, rolipram. In kind it is cell-based. In short, it runs like this: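 Heparinised human whole blood pre-incubated 20 min at 37 °C with serially diluted A2a antagonists plus rolipram, then stimulated 60 min with 3 μM NECA (final). After fixation and red-cell lysis, white cells were permeabilized and stained for phospho-CREB and CD8; pCREB in CD8+ T cells measured by flow cytometry.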

Assay [5] has as its target human Adenosine A2b receptor (Homo sapiens (Human), UniProt P29275). Put plainly: Adenosine receptor TR-FRET binding assay (A2b). Summed up:
as §1

In assay [6] the target is human Adenosine A3 receptor (Homo sapiens (Human), UniProt P0DMS8). In words: Adenosine receptor TR-FRET binding assay (A3). The conditions noted are these: inhibition of binding of 100 nM CA200645, CHO cell membranes. In short, it runs like this:
as §1

The next assay concerns human PBMCs. Put plainly: CD3/CD28 stimulated IL-2 release NECA reversal assay in human PBMCs. The class given is cell-based. The conditions noted are these: PBMC, 1 uM NECA, 24 hours, IL-2 in culture supernatant. In short, it runs like this: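 PBMCs from citrated healthy-donor blood plated at 50,000 cells/well on 1 ug/ml CD3 antibody with 1 ug/ml CD28 antibody, 1 uM NECA and 0.003-10 μM antagonist (final), 24 h at 37° C. Supernatant IL-2 measured by MSD immunoassay; % inhibition set against no-NECA control wells as 100%.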

The mark [7] stands for this setting: TR-FRET, inhibition of binding of 30 nM CA200645, CHO cell membranes.

Each structure is given as a SMILES string. Where two headings read alike, the source gives them in different places.

Sequence of human Adenosine A2b receptor (P29275 whole entry): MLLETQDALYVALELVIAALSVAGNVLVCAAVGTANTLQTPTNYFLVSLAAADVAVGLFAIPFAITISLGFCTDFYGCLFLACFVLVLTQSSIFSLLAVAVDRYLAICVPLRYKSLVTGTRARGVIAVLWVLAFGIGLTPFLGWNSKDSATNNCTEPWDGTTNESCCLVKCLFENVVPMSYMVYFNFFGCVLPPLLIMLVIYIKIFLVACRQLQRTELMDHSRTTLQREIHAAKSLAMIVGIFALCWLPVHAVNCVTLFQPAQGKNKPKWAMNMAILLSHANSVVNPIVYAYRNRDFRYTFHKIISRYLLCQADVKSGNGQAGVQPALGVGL
Sequence of human Adenosine A3 receptor (P0DMS8 whole entry): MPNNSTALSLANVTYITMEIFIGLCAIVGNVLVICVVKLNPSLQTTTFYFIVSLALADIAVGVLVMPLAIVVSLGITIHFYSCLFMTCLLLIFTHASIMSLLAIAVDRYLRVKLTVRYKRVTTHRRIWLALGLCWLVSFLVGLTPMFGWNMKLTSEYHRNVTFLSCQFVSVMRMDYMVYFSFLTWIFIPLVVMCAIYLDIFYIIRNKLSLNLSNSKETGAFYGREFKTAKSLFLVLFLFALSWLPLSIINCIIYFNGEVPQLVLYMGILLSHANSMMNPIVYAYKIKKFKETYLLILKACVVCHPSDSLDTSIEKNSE
Sequence of human Adenosine A2a receptor (P29274 whole entry): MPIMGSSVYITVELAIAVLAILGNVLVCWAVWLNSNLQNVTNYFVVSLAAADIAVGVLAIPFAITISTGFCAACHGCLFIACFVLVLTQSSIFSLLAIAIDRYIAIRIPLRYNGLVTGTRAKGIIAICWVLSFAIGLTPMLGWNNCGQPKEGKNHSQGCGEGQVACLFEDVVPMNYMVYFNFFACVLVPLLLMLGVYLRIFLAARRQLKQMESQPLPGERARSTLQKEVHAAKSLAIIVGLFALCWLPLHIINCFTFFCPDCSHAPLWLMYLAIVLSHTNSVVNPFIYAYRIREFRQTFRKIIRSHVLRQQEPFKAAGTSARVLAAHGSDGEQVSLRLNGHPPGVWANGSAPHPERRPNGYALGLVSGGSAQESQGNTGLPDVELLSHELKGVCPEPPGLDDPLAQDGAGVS
Sequence of human Adenosine A1 receptor (P30542 whole entry): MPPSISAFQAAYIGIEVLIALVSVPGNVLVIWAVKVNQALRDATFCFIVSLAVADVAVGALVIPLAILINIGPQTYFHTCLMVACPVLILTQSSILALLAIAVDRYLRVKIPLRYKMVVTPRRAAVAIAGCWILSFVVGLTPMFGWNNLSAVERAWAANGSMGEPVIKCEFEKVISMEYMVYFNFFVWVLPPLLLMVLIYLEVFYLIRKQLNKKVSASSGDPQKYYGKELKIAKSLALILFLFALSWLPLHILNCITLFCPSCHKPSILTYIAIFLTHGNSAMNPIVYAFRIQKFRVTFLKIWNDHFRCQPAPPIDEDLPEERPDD

As for `COCc1cc(-c2sc(NC(=O)N3CC4(COC4)C3)nc2-c2cccc(C#N)c2)cc(C)n1` [Example 21, N-[4-(3-Cyanophenyl)-5-[2-(methoxymethyl)-6-methyl-4-pyridyl]thiazol-2-yl]-2-oxa-6-azaspiro[3.3]heptane-6-carboxamide], the IC50 is 19 nM in assay [1] (Homo sapiens, Dendritic cell) and 20 nM in assay [4]. For the same compound, the Ki in assay [2] was 29 nM; in assay [3] it was 0.21 nM; in assay [5] (setting [7]), 3.9 nM; in assay [6], 1560 nM.

Regarding `Cc1cc(-c2sc(NC(=O)N3CCC4(CC3)CNC(=O)O4)nc2-c2cccc(C#N)c2)cc(C)n1` [Example 6.56, N-[4-(3-Cyanophenyl)-5-(2,6-dimethyl-4-pyridyl)thiazol-2-yl]-2-oxo-1-oxa-3,8-diazaspiro[4.5]decane-8-carboxamide], the IC50 in the assay on human PBMCs turned out to be 3.5 nM; in assay [1] (Homo sapiens, Dendritic cell), 7 nM; in assay [4] it was 70 nM.

In the case of `Cc1cc(-c2sc(NC(=O)N3CC4(COC4)C3)nc2-c2cccc(C#N)c2)cc([C@@H](C)O)n1` (single isomer, unassigned) [Example 12.3a, N-[4-(3-Cyanophenyl)-5-[2-[(1R)-1-hydroxyethyl]-6-methyl-4-pyridyl]thiazol-2-yl]-2-oxa-6-azaspiro[3.3]heptane-6-carboxamide or N-[4-(3-cyanophenyl)-5-[2-[(1S)-1-hydroxyethyl]-6-methyl-4-pyridyl]thiazol-2-yl]-2-oxa-6-azaspiro[3.3]heptane-6-carboxamide], the IC50 is 16 nM in assay [1] and 10 nM in assay [4]. Moreover, the Ki in assay [2] amounted to 23 nM; in assay [3] it was 0.18 nM; in assay [5] (setting [7]), 2.6 nM; in assay [6] it was 1090 nM.

In the case of `Cc1cc(-c2sc(NC(=O)N3CC[C@@](C)(C#N)C3)nc2-c2cccc(C#N)c2)cc(C)n1` [Example 27a, (3R)-3-Cyano-N-[4-(3-cyanophenyl)-5-(2,6-dimethyl-4-pyridyl)thiazol-2-yl]-3-methyl-pyrrolidine-1-carboxamide], the IC50 in assay [1] (Homo sapiens, Dendritic cell) was 10 nM; in assay [4], 80 nM. Besides, the Ki in assay [2] was determined as 37 nM; in assay [3] it was 0.54 nM; in assay [5] (setting [7]) it was 1.2 nM; in assay [6], 313 nM.

Regarding `CC(C)(O)c1cc(-c2sc(NC(=O)N3CC4(COC4)C3)nc2-c2cccc(C#N)c2)cc(Cl)n1` [Example 23, N-[5-[2-Chloro-6-(1-hydroxy-1-methyl-ethyl)-4-pyridyl]-4-(3-cyanophenyl)thiazol-2-yl]-2-oxa-6-azaspiro[3.3]heptane-6-carboxamide], the IC50 turned out to be 182 nM in assay [1] (Homo sapiens, Dendritic cell) and 20 nM in assay [4]. For the same compound, the Ki in assay [2] came out at 9 nM; in assay [3], 0.16 nM; in assay [5] (setting [7]) it was 5.7 nM; in assay [6], 1840 nM.

Regarding `Cc1cc(-c2sc(NC(=O)N3CCC4(CC3)CNC4=O)nc2-c2cccc(C#N)c2)c(F)c(C)n1` [Example 6.69, N-[4-(3-Cyanophenyl)-5-(3-fluoro-2,6-dimethyl-4-pyridyl)thiazol-2-yl]-3-oxo-2,7-diazaspiro[3.5]nonane-7-carboxamide], the IC50 in the assay with human PBMCs is 10.9 nM; in assay [1] (Homo sapiens, Dendritic cell), 3 nM; in assay [4], 430 nM.

In the case of `Cc1cc(-c2sc(NC(=O)N3CC(C)(C#N)C3)nc2-c2cccc(C#N)c2)c(F)c(C)n1` [Example 6.68, 3-Cyano-N-[4-(3-cyanophenyl)-5-(3-fluoro-2,6-dimethyl-4-pyridyl)thiazol-2-yl]-3-methyl-azetidine-1-carboxamide], the IC50 in the assay on human PBMCs is 3.1 nM; in assay [1] (Homo sapiens, Dendritic cell), 3 nM; in assay [4] it was 50 nM.

`Cc1cc(-c2sc(NC(=O)N3CCC4(CNCCO4)C3)nc2-c2cccc(C#N)c2)cc(C)n1` (stereo not drawn) [Example 13.12, N-[4-(3-Cyanophenyl)-5-(2,6-dimethyl-4-pyridyl)thiazol-2-yl]-6-oxa-2,9-diazaspiro[4.5]decane-2-carboxamide]: the IC50 in assay [1] (Homo sapiens, Dendritic cell) was found to be 73 nM; in assay [4], 70 nM. Besides, the Ki in assay [2] is 41 nM; in assay [3], 0.84 nM; in assay [5] (setting [7]), 4.6 nM; in assay [6] it was 426 nM.

`Cc1cc(-c2sc(NC(=O)N3CCC(S(N)(=O)=O)C3)nc2-c2cccc(C#N)c2)cc(C)n1` (stereo not drawn) [Example 6.2, N-[4-(3-Cyanophenyl)-5-(2,6-dimethyl-4-pyridyl)thiazol-2-yl]-3-sulfamoyl-pyrrolidine-1-carboxamide]: half-maximal inhibition in assay [1] (Homo sapiens, Dendritic cell) (IC50) was put at 28 nM. In addition, the Ki in assay [2] is 24 nM; in assay [3], 1.28 nM; in assay [5] (setting [7]) it was 0.9 nM; in assay [6], 166 nM.

In the case of `Cc1cc(-c2sc(NC(=O)N3CC4(COC4)C3)nc2-c2cccc(C#N)c2)cc(C(C)O)n1` (racemic) [Example 12.3, N-[4-(3-Cyanophenyl)-5-[2-(1-hydroxyethyl)-6-methyl-4-pyridyl]thiazol-2-yl]-2-oxa-6-azaspiro[3.3]heptane-6-carboxamide], the IC50 in assay [1] (Homo sapiens, Dendritic cell) was 31 nM; in assay [4], 20 nM. Besides, the Ki in assay [2] was 27 nM; in assay [3] it was 0.44 nM; in assay [5] (setting [7]), 5 nM; in assay [6], 1810 nM.

As to `Cc1cc(-c2sc(NC(=O)N3C[C@@H]4OCCN(C)[C@@H]4C3)nc2-c2cccc(C#N)c2)cc(C)n1` (racemic) [Example 6.98, rac-(4aR,7aS)-N-[4-(3-Cyanophenyl)-5-(2,6-dimethyl-4-pyridyl)thiazol-2-yl]-4-methyl-2,3,4a,5,7,7a-hexahydropyrrolo[3,4-b][1,4]oxazine-6-carboxamide], the IC50 in assay [1] (Homo sapiens, Dendritic cell) came to 72 nM; in assay [4] it was 50 nM. Further, the results for the Ki in assay [3], in assay [5] and in assay [6] were 0.91 nM, 7 nM and 819 nM, respectively.

Turning to `CCc1cc(-c2sc(NC(=O)N3CC4(COC4)C3)nc2-c2cccc(C#N)c2)cc(C)n1` [Example 16.9], the IC50 in assay [1] (Homo sapiens, Dendritic cell) was 18 nM. The Ki in assay [2] stood at 9 nM; in assay [3], 0.1 nM; in assay [5] (setting [7]), 0.8 nM; in assay [6], 350 nM.

As for `N#Cc1cccc(-c2nc(NC(=O)N3CC4(COC4)C3)sc2-c2cc(CO)nc(C(F)(F)F)c2)c1` [Example 26, N-[4-(3-Cyanophenyl)-5-[2-(hydroxymethyl)-6-(trifluoromethyl)-4-pyridyl]thiazol-2-yl]-2-oxa-6-azaspiro[3.3]heptane-6-carboxamide], the IC50 in assay [1] (Homo sapiens, Dendritic cell) was found to be 17 nM; in assay [4], 50 nM. The Ki is 38 nM in assay [2], 0.24 nM in assay [3], 1.2 nM in assay [5] (setting [7]) and 456 nM in assay [6].

Consider `Cc1cc(-c2sc(NC(=O)N3CC4(COC4)C3)nc2-c2cccc(C#N)c2C)cc(C)n1` [Example 6.79, N-[4-(3-Cyano-2-methyl-phenyl)-5-(2,6-dimethyl-4-pyridyl)thiazol-2-yl]-2-oxa-6-azaspiro[3.3]heptane-6-carboxamide], for which the IC50 amounted to 14.5 nM in the assay on human PBMCs; 83 nM in assay [1] (Homo sapiens, Dendritic cell); 350 nM in assay [4].

For `Cc1cc(-c2sc(NC(=O)N3CC4(COC4)C3)nc2-c2cccc(C#N)c2)cc(C(F)F)n1` [Example 6.97, N-[4-(3-Cyanophenyl)-5-[2-(difluoromethyl)-6-methyl-4-pyridyl]thiazol-2-yl]-2-oxa-6-azaspiro[3.3]heptane-6-carboxamide], the IC50 in assay [1] (Homo sapiens, Dendritic cell) was 13 nM; in assay [4], 50 nM. The Ki in assay [2] was 17 nM; in assay [3], 0.23 nM; in assay [5] (setting [7]), 1.1 nM; in assay [6] it was 250 nM.

One may read the IC50 as the point on the concentration scale where inhibition reaches its midpoint. The Ki is a measure of affinity in units of concentration, obtained from inhibition or displacement.

The values are drawn from patent US20230293517A1, “ANTAGONIST COMPOUNDS” (AdoRx Therapeutics Limited, priority 2020, published 2023).
